PMC3341351, “Down-Regulation of GABAA Receptor via Promiscuity with the Vasoactive Peptide Urotensin II Receptor. Potential Involvement in Astrocyte Plasticity” (PLoS ONE, 2012)

What was measured:
[1] = test system: α2β1γ1 GABAAR co-expressed with human UT; test: Patch-clamp of Iso-evoked current in CHO-UT expressing α2β1γ1 GABAAR; assay type: cell-based; conditions: hUII 10^−13 to 10^−7 M; Iso 10^−4 M, 2 s; −60 mV
Method: CHO-K1 cell lines were obtained from American Type Culture Collection (Manassas, VA, USA). The human UT stable CHO (CHO-UT) was generously provided by Dr Christophe Dubessy (Inserm, Rouen University, France) et generated by CHO electroporation with 20 µg pIRES-neo2-UT DNA and 500 µg sterile sonicated salmon sperm DNA using the EasyJect One electroporation system (Equibio, Angleur, Belgium), followed by repetitive rounds of limiting dilution of cells in G-418 (400 µg/ml) for selection. Normal or stable CHO was grown in Ham-F12 medium supplemented with 10% FBS, 1% antibiotic-antimicotic solution and 2 mM glutamine, at 37°C in a humidified incubator with an atmosphere of 5% CO2. The stable CHO-UT medium was supplemented with the antibiotic G-418 (40 µg/ml).
For transfection, cells were trypsinized (0.05%), triturated in HamF-12 containing 10% FBS media, pelleted by centrifugation, resuspended in 100 µl solution V for nucleofection by an Amaxa Nucleofector Device (Köln, Germany; set to program U-016). Experiments were performed on normal CHO or on the stable CHO-UT cells and transiently transfected with combinations of cDNA encoding α2β3γ2, α2β3γ1, α2β1γ2, α2β3γ1, α2β3, β3γ2 (4 µg of cDNA total/transfection) GABAAR subunits. Cells were seeded on 14-mm poly-L-lysine-coated glass bottom insert dishes at 5×10^5 cells in a volume of 0.5 ml/dish. […]

[2] = test system: α2β3γ2 GABAAR in the absence of UT; test: Patch-clamp of Iso-evoked current in CHO expressing α2β3γ2 GABAAR without UT; assay type: cell-based; conditions: DMCM 10^−5 M; hUII and URP 10^−8 M; [Orn^5]-URP and palosuran 10^−6 M; Iso 10^−4 M, 2 s; n = 3–18
Method: For transfection, cells were trypsinized (0.05%), triturated in HamF-12 containing 10% FBS media, pelleted by centrifugation, resuspended in 100 µl solution V for nucleofection by an Amaxa Nucleofector Device (Köln, Germany; set to program U-016). Experiments were performed on normal CHO or on the stable CHO-UT cells and transiently transfected with combinations of cDNA encoding α2β3γ2, α2β3γ1, α2β1γ2, α2β3γ1, α2β3, β3γ2 (4 µg of cDNA total/transfection) GABAAR subunits. Cells were seeded on 14-mm poly-L-lysine-coated glass bottom insert dishes at 5×10^5 cells in a volume of 0.5 ml/dish. Cells were incubated overnight at 37°C in a humidified incubator (5% CO2) during 16 h before electrophysiological or immunocytochemical experiments.
GABAA receptor cDNA clones; α2, β1, β3, γ1 and γ2L engineered into the expression vector pCDM8 ([…], β1, γ2) or pcDNA/Amp (β3, γ1), were generously provided by Dr Wingrove (Merk Sharp and Dohme, Harlow, UK). To obtain β3 ^HA or γ2 ^HA epitope-tagged subunits, β3 or γ2 cDNA was amplified and the PCR product was subcloned using the SalI and NotI sites of pCMV-HA (Table S2) after digestion by the same restriction enzymes.
The conventional whole-cell configuration of the patch-clamp technique was used to study the GABA-gated currents in astrocytes and granule neurons, UT stably transfected CHO, CHO-UT, and CHO transiently transfected with diverse variants of UT and GABAAR subunits. After 24-h transfection, cell culture coverslips were placed in a small chamber (1.5 ml) on a stage of a right microscope DMLFSA (Leica, Heidelberg, Germany) and superfused continuously with the following bath solution containing (in mM): NaCl, 150; KCl, 2.5; HEPES, 5; CaCl2, 2; MgCl2, 1; glucose, 10 (pH 7.4 adjusted with NaOH). The patch pipettes were fabricated from 1.5 mm (outer diameter) soft glass tubes on a two-step vertical pipette puller (List-Medical, L/M-3P-A, Darmstadt, Germany). […] ATP and GTP were added to the internal solution used to fill electrode just before recording. All recordings were obtained at RT with cells voltage-clamped at −70 mV. The GABAA receptor agonist isoguvacine was prepared in the extracellular solution and was applied to cells by pneumatic pressure ejection. To prevent desenzitization, isoguvacine was more often ejected during 5 s at 2-min intervals. ATP, GTP, or guanosine 5′-O-(2-thiodiphosphate) (GDPβS) were administered through the patch pipette solution. We investigated the effect of competitive inhibition of GDP-GTP exchange by including GDPβS in the pipette solution (in addition to the normal amount of GTP). For GDPβS and the KIC, immediately following patch rupture, GABA current recordings were performed and the experiment was commenced after an equilibration period of 15 min. […]

Sequence: ETPDCFWKYCV (disulfide) [hUII, human urotensin II, synthesized by solid phase methodology]
- Inhibitory effect on Iso-evoked current, α2β1γ1 [1]: less effective
- Effect on Iso-evoked current in the absence of UT [2]: failed to affect the amplitude of the current
